SMILES strings stand for the structures. Where a SMILES comes first, the peptide text is derived from it. [ ]: non-standard residue; d: D form. dPhe(3-Cl) = N[C@H](Cc1cccc(Cl)c1)C(=O)O; dPhe(2-Cl) = N[C@H](Cc1ccccc1Cl)C(=O)O; d2Thi = N[C@H](Cc1cccs1)C(=O)O; d3Thi = N[C@H](Cc1ccsc1)C(=O)O; Nle = CCCC[C@H](N)C(=O)O

The nature of the first data set: Pharmacokinetics in rats after intravenous bolus injection (systemic clearance). The data set is classed as in vivo. The conditions noted are these: rat, plasma, 0.2 mg FB/kg, adult male Sprague-Dawley rats, i.v. bolus, dose 0.20 mg FB/kg, read-out: CL (ml/kg/min) Average. The protocol:
Pharmacokinetic (PK) parameters of illustrative agonists of the GLP-2 receptor were determined in adult male Sprague-Dawley rats post intravenous bolus injection of compounds at doses of 0.1-1.0 mg/kg. Three or four doubly cannulated animals per compound were dosed via jugular vein, blood samples were collected at several intervals via carotid artery, and plasma samples were prepared from whole blood using K2EDTA as anticoagulant. Subsequent bioanalysis of samples included compound extraction and plasma concentration determination using standard LC/MS/MS methods. Analyte concentration was calculated from internal standard normalized peak area and calibration curves.
For calculation of PK parameters the compound concentration-time curves were analyzed with the noncompartmental data analysis software package PK Solutions 2.0™ (Summit Research Services, Montrose Colo.). The systemic clearance per kg body weight (CL) was calculated as the dose per kg body weight divided by the AUC extrapolated to infinity based on trapezoid calculation (AUC∞). Values reported are the arithmetic mean and standard deviation from the number of animals used for each compound as indicated on Table 3.
In the case of `CCCC[C@H](NC(=O)[C@H](CCC(=O)O)NC(=O)[C@H](CC(=O)O)NC(=O)[C@H](CO)NC(=O)[C@H](Cc1ccccc1)NC(=O)[C@H](CO)NC(=O)CNC(=O)[C@H](CC(=O)O)NC(=O)CNC(=O)[C@@H](N)Cc1c[nH]cn1)C(=O)N[C@H](Cc1cccs1)C(=O)N[C@H](C(=O)N[C@H](C(=O)N[C@@H](CC(C)C)C(=O)N[C@@H](CC(=O)O)C(=O)N[C@@H](CC(N)=O)C(=O)N[C@@H](CC(C)C)C(=O)N[C@@H](C)C(=O)N[C@@H](C)C(=O)N[C@@H](CCCNC(=N)N)C(=O)N[C@@H](CC(=O)O)C(=O)N[C@@H](Cc1ccccc1)C(=O)N[C@H](C(=O)N[C@@H](CC(N)=O)C(=O)N[C@@H](Cc1c[nH]c2ccccc12)C(=O)N[C@@H](CC(C)C)C(=O)N[C@H](C(=O)N[C@@H](CCC(N)=O)C(=O)N[C@H](C(=O)N[C@@H](CCCCN)C(N)=O)[C@@H](C)O)[C@@H](C)CC)[C@@H](C)CC)[C@@H](C)CC)[C@@H](C)O` [Compound 32, [Gly2,Nle10,D-Thi11] hGLP-2 (1-30)-NH2] (H-HGDGSFSDE[Nle][d2Thi]TILDNLAARDFINWLIQTK-NH2), the clearance is 1.1 mL/kg/min. Same read-out and setting: to `CCCC[C@H](NC(=O)[C@H](CCC(=O)O)NC(=O)[C@H](CC(=O)O)NC(=O)[C@H](CO)NC(=O)[C@H](Cc1ccccc1)NC(=O)[C@H](CO)NC(=O)CNC(=O)[C@H](CC(=O)O)NC(=O)CNC(=O)[C@@H](N)Cc1c[nH]cn1)C(=O)N[C@H](Cc1ccc(O)cc1)C(=O)N[C@H](C(=O)N[C@H](C(=O)N[C@@H](CC(C)C)C(=O)N[C@@H](CC(=O)O)C(=O)N[C@@H](CC(N)=O)C(=O)N[C@@H](CC(C)C)C(=O)N[C@@H](C)C(=O)N[C@@H](C)C(=O)N[C@@H](CCCNC(=N)N)C(=O)N[C@@H](CC(=O)O)C(=O)N[C@@H](Cc1ccccc1)C(=O)N[C@H](C(=O)N[C@@H](CC(N)=O)C(=O)N[C@@H](Cc1c[nH]c2ccccc12)C(=O)N[C@@H](CC(C)C)C(=O)N[C@H](C(=O)N[C@@H](CCC(N)=O)C(=O)N[C@H](C(=O)N[C@@H](CCCCN)C(N)=O)[C@@H](C)O)[C@@H](C)CC)[C@@H](C)CC)[C@@H](C)CC)[C@@H](C)O` [Compound 39, [Gly2,Nle10,D-Tyr11] hGLP-2 (1-30)-NH2] (H-HGDGSFSDE[Nle][dY]TILDNLAARDFINWLIQTK-NH2) belongs 4.9 mL/kg/min; to `CCCC[C@H](NC(=O)[C@H](CCC(=O)O)NC(=O)[C@H](CC(=O)O)NC(=O)[C@H](CO)NC(=O)[C@H](Cc1ccccc1)NC(=O)[C@H](CO)NC(=O)CNC(=O)[C@H](CC(=O)O)NC(=O)CNC(=O)[C@@H](N)Cc1c[nH]cn1)C(=O)N[C@H](Cc1ccccc1Cl)C(=O)N[C@H](C(=O)N[C@H](C(=O)N[C@@H](CC(C)C)C(=O)N[C@@H](CC(=O)O)C(=O)N[C@@H](CC(N)=O)C(=O)N[C@@H](CC(C)C)C(=O)N[C@@H](C)C(=O)N[C@@H](C)C(=O)N[C@@H](CCCNC(=N)N)C(=O)N[C@@H](CC(=O)O)C(=O)N[C@@H](Cc1ccccc1)C(=O)N[C@H](C(=O)N[C@@H](CC(N)=O)C(=O)N[C@@H](Cc1c[nH]c2ccccc12)C(=O)N[C@@H](CC(C)C)C(=O)N[C@H](C(=O)N[C@@H](CCC(N)=O)C(=O)N[C@H](C(=O)N[C@@H](CCCCN)C(N)=O)[C@@H](C)O)[C@@H](C)CC)[C@@H](C)CC)[C@@H](C)CC)[C@@H](C)O` [Compound 40, [Gly2,Nle10,D-2-Cpa11] hGLP-2 (1-30)-NH2] (H-HGDGSFSDE[Nle][dPhe(2-Cl)]TILDNLAARDFINWLIQTK-NH2), 0.73 mL/kg/min; to `CCCC[C@H](NC(=O)[C@H](CCC(=O)O)NC(=O)[C@H](CC(=O)O)NC(=O)[C@H](CO)NC(=O)[C@H](Cc1ccccc1)NC(=O)[C@H](CO)NC(=O)CNC(=O)[C@H](CC(=O)O)NC(=O)CNC(=O)[C@@H](N)Cc1c[nH]cn1)C(=O)N[C@H](Cc1ccsc1)C(=O)N[C@H](C(=O)N[C@H](C(=O)N[C@@H](CC(C)C)C(=O)N[C@@H](CC(=O)O)C(=O)N[C@@H](CC(N)=O)C(=O)N[C@@H](CC(C)C)C(=O)N[C@@H](C)C(=O)N[C@@H](C)C(=O)N[C@@H](CCCNC(=N)N)C(=O)N[C@@H](CC(=O)O)C(=O)N[C@@H](Cc1ccccc1)C(=O)N[C@H](C(=O)N[C@@H](CC(N)=O)C(=O)N[C@@H](Cc1c[nH]c2ccccc12)C(=O)N[C@@H](CC(C)C)C(=O)N[C@H](C(=O)N[C@@H](CCC(N)=O)C(=O)N[C@H](C(=O)N[C@@H](CCCCN)C(N)=O)[C@@H](C)O)[C@@H](C)CC)[C@@H](C)CC)[C@@H](C)CC)[C@@H](C)O` [Compound 42, [Gly2,Nle10,D-3-Thi11] hGLP-2 (1-30)-NH2] (H-HGDGSFSDE[Nle][d3Thi]TILDNLAARDFINWLIQTK-NH2), 1.3 mL/kg/min. The same measure, in the same setting: next, `CCCC[C@H](NC(=O)[C@H](CCC(=O)O)NC(=O)[C@H](CC(=O)O)NC(=O)[C@H](CO)NC(=O)[C@H](Cc1ccccc1)NC(=O)[C@H](CO)NC(=O)CNC(=O)[C@H](CC(=O)O)NC(=O)CNC(=O)[C@@H](N)Cc1c[nH]cn1)C(=O)N[C@H](Cc1cccc(Cl)c1)C(=O)N[C@H](C(=O)N[C@H](C(=O)N[C@@H](CC(C)C)C(=O)N[C@@H](CC(=O)O)C(=O)N[C@@H](CC(N)=O)C(=O)N[C@@H](CC(C)C)C(=O)N[C@@H](C)C(=O)N[C@@H](C)C(=O)N[C@@H](CCCNC(=N)N)C(=O)N[C@@H](CC(=O)O)C(=O)N[C@@H](Cc1ccccc1)C(=O)N[C@H](C(=O)N[C@@H](CC(N)=O)C(=O)N[C@@H](Cc1c[nH]c2ccccc12)C(=O)N[C@@H](CC(C)C)C(=O)N[C@H](C(=O)N[C@@H](CCC(N)=O)C(=O)N[C@H](C(=O)N[C@@H](CCCCN)C(N)=O)[C@@H](C)O)[C@@H](C)CC)[C@@H](C)CC)[C@@H](C)CC)[C@@H](C)O` [Compound 44, [Gly2,Nle10,D-3-Cpa11] hGLP-2 (1-30)-NH2] (H-HGDGSFSDE[Nle][dPhe(3-Cl)]TILDNLAARDFINWLIQTK-NH2): 0.32 mL/kg/min.

Still in this data set, the particulars now being: rat, plasma, adult male Sprague-Dawley rats, i.v. bolus, dose 0.18 mg FB/kg, read-out: CL (ml/kg/min) Average.
On to `CCCC[C@H](NC(=O)[C@H](CCC(=O)O)NC(=O)[C@H](CC(=O)O)NC(=O)[C@H](CO)NC(=O)[C@H](Cc1ccccc1)NC(=O)[C@H](CO)NC(=O)CNC(=O)[C@H](CC(=O)O)NC(=O)CNC(=O)[C@@H](N)Cc1c[nH]cn1)C(=O)N[C@H](C(=O)N[C@H](C(=O)N[C@H](C(=O)N[C@@H](CC(C)C)C(=O)N[C@@H](CC(=O)O)C(=O)N[C@@H](CC(N)=O)C(=O)N[C@@H](CC(C)C)C(=O)N[C@@H](C)C(=O)N[C@@H](C)C(=O)N[C@@H](CCCNC(=N)N)C(=O)N[C@@H](CC(=O)O)C(=O)N[C@@H](Cc1ccccc1)C(=O)N[C@H](C(=O)N[C@@H](CC(N)=O)C(=O)N[C@@H](Cc1c[nH]c2ccccc12)C(=O)N[C@@H](CC(C)C)C(=O)N[C@H](C(=O)N[C@@H](CCC(N)=O)C(=O)N[C@H](C(=O)N[C@@H](CCCCN)C(N)=O)[C@@H](C)O)[C@@H](C)CC)[C@@H](C)CC)[C@@H](C)CC)[C@@H](C)O)[C@@H](C)CC` [Compound 31, [Gly2,Nle10,Ile11] hGLP-2 (1-30)-NH2] (H-HGDGSFSDE[Nle]ITILDNLAARDFINWLIQTK-NH2), for which the clearance was 5.6 mL/kg/min.

Values taken from patent US8580918B2, “Peptidic GLP-2 agonists” (Ferring B.V., priority 2009, dated 2013).
